Experimental data as given in ChEMBL document CHEMBL2440076, “New triarylpyrazoles as broad-spectrum anticancer agents: design, synthesis, and biological evaluation” (Eur J Med Chem, 2013).

Columns and labels:
[1] = test system: U-251; assay: Growth inhibition of human U251 cells assessed as cell growth at 10 uM after 48 hrs by sulforhodamine B assay; type: functional; conditions: U-251, 48 h, read-out: Activity
[2] = test system: SR; assay: Growth inhibition of human SR cells after 48 hrs by sulforhodamine B assay; type: functional
[3] = test system: TK-10; assay: Growth inhibition of human TK10 cells assessed as cell growth at 10 uM after 48 hrs by sulforhodamine B assay; type: functional; conditions: TK-10, 48 h, read-out: Activity
[4] = test system: CAKI-1; assay: Growth inhibition of human CAKI-1 cells after 48 hrs by sulforhodamine B assay; type: functional; conditions: CAKI-1, 48 h
[5] = test system: UACC-257; assay: Growth inhibition of human UACC257 cells after 48 hrs by sulforhodamine B assay; type: functional; conditions: UACC-257, 48 h
[6] = test system: RXF 393; assay: Growth inhibition of human RXF393 cells after 48 hrs by sulforhodamine B assay; type: functional; conditions: RXF 393, 48 h
[7] = test system: SK-MEL-5; assay: Growth inhibition of human SK-MEL-5 cells assessed as cell growth at 10 uM after 48 hrs by sulforhodamine B assay; type: functional; conditions: SK-MEL-5, 48 h, read-out: Activity
[8] = test system: OVCAR-4; assay: Growth inhibition of human OVCAR4 cells after 48 hrs by sulforhodamine B assay; type: functional; conditions: OVCAR-4, 48 h
[9] = test system: RPMI-8226; assay: Growth inhibition of human RPMI8226 cells assessed as cell growth at 10 uM after 48 hrs by sulforhodamine B assay; type: functional; conditions: RPMI-8226, 48 h, read-out: Activity
[10] = test system: SW-620; assay: Growth inhibition of human SW620 cells after 48 hrs by sulforhodamine B assay; type: functional; conditions: SW-620, 48 h
[11] = test system: MCF7; assay: Growth inhibition of human MCF7 cells after 48 hrs by sulforhodamine B assay; type: functional; conditions: MCF7, 48 h
[12] = test system: Malme-3M; assay: Growth inhibition of human MALME-3M cells assessed as cell growth at 10 uM after 48 hrs by sulforhodamine B assay; type: functional; conditions: read-out: Activity
[13] = test system: KM12; assay: Growth inhibition of human KM12 cells after 48 hrs by sulforhodamine B assay; type: functional, cell-based; conditions: KM12, 48 h
[14] = test system: BT-549; assay: Growth inhibition of human BT549 cells assessed as cell growth at 10 uM after 48 hrs by sulforhodamine B assay; type: functional; conditions: BT-549, 48 h, read-out: Activity
[15] = test system: A549; assay: Growth inhibition of human A549/ATCC cells assessed as cell growth at 10 uM after 48 hrs by sulforhodamine B assay; type: functional; conditions: A549, 48 h, read-out: Activity
[16] = test system: SK-MEL-5; assay: Growth inhibition of human SK-MEL-5 cells after 48 hrs by sulforhodamine B assay; type: functional; conditions: SK-MEL-5, 48 h
[17] = test system: HOP-92; assay: Growth inhibition of human HOP92 cells assessed as cell growth at 10 uM after 48 hrs by sulforhodamine B assay; type: functional; conditions: HOP-92, 48 h, read-out: Activity
[18] = test system: SN12C; assay: Growth inhibition of human SN12C cells assessed as cell growth at 10 uM after 48 hrs by sulforhodamine B assay; type: functional; conditions: read-out: Activity
[19] = test system: KM12; assay: Growth inhibition of human KM12 cells assessed as cell growth at 10 uM after 48 hrs by sulforhodamine B assay; type: functional; conditions: KM12, 48 h, read-out: Activity
[20] = test system: HT-29; assay: Growth inhibition of human HT-29 cells after 48 hrs by sulforhodamine B assay; type: functional; conditions: HT-29, 48 h
[21] = test system: A498; assay: Growth inhibition of human A498 cells after 48 hrs by sulforhodamine B assay; type: functional, cell-based; conditions: A498, 48 h
[22] = test system: U-251; assay: Growth inhibition of human U251 cells after 48 hrs by sulforhodamine B assay; type: functional; conditions: U-251, 48 h
[23] = test system: NCI-H23; assay: Growth inhibition of human NCI-H23 cells after 48 hrs by sulforhodamine B assay; type: functional; conditions: NCI-H23, 48 h
[24] = test system: CAKI-1; assay: Growth inhibition of human CAKI-1 cells assessed as cell growth at 10 uM after 48 hrs by sulforhodamine B assay; type: functional; conditions: CAKI-1, 48 h, read-out: Activity
[25] = test system: HOP-62; assay: Growth inhibition of human HOP62 cells assessed as cell growth at 10 uM after 48 hrs by sulforhodamine B assay; type: functional; conditions: HOP-62, 48 h, read-out: Activity
[26] = test system: OVCAR-8; assay: Growth inhibition of human OVCAR8 cells after 48 hrs by sulforhodamine B assay; type: functional; conditions: OVCAR-8, 48 h
[27] = test system: ACHN; assay: Growth inhibition of human ACHN cells after 48 hrs by sulforhodamine B assay; type: functional
[28] = test system: SK-MEL-28; assay: Growth inhibition of human SK-MEL-28 cells assessed as cell growth at 10 uM after 48 hrs by sulforhodamine B assay; type: functional; conditions: SK-MEL-28, 48 h, read-out: Activity
[29] = test system: PC-3; assay: Growth inhibition of human PC3 cells assessed as cell growth at 10 uM after 48 hrs by sulforhodamine B assay; type: functional; conditions: PC-3, 48 h, read-out: Activity
[30] = test system: OVCAR-5; assay: Growth inhibition of human OVCAR5 cells after 48 hrs by sulforhodamine B assay; type: functional; conditions: OVCAR-5, 48 h
[31] = test system: NCI-H522; assay: Growth inhibition of human NCI-H522 cells after 48 hrs by sulforhodamine B assay; type: functional; conditions: NCI-H522, 48 h
[32] = test system: NCI-H23; assay: Growth inhibition of human NCI-H23 cells assessed as cell growth at 10 uM after 48 hrs by sulforhodamine B assay; type: functional; conditions: NCI-H23, 48 h, read-out: Activity
[33] = test system: SW-620; assay: Growth inhibition of human SW620 cells assessed as cell growth at 10 uM after 48 hrs by sulforhodamine B assay; type: functional; conditions: SW-620, 48 h, read-out: Activity
[34] = test system: CCRF-CEM; assay: Growth inhibition of human CCRF-CEM cells after 48 hrs by sulforhodamine B assay; type: functional
[35] = test system: HT-29; assay: Growth inhibition of human HT-29 cells assessed as cell growth at 10 uM after 48 hrs by sulforhodamine B assay; type: functional; conditions: HT-29, 48 h, read-out: Activity
[36] = read-out: LC50 (the source's name)

## O=C(Nc1cccc(-n2cc(-c3ccncc3)c(-c3ccc(Cl)c(O)c3)n2)c1)Nc1ccc(Cl)c(Cl)c1
[1]
  growth at 10 µM: 12.4%
[2]
  GI50: 1.14 µM
  TGI: 15 µM
[2]; [36]
  CC50: > 32.5 µM
[3]
  growth at 10 µM: 7.15%
[4]
  GI50: 1.11 µM
  TGI: 14.3 µM
[4]; [36]
  CC50: > 32.5 µM
[5]
  GI50: 0.93 µM
  TGI: 3.16 µM
[5]; [36]
  CC50: > 32.5 µM
[6]
  GI50: 1 µM
  LC50 (concentration killing 50% of cells): > 32.5 µM
  TGI: 6.4 µM
[7]
  growth at 10 µM: -40.2%
[8]
  GI50: 1.69 µM
  LC50 (concentration killing 50% of cells): > 32.5 µM
  TGI: > 32.5 µM
[9]
  growth at 10 µM: 7.89%
[10]
  GI50: 1.46 µM
  TGI: > 32.5 µM
[10]; [36]
  CC50: > 32.5 µM
[11]
  GI50: 1.06 µM
  LC50: > 32.5 µM
  TGI: > 32.5 µM
[12]
  growth at 10 µM: 10.3%
[13]
  GI50: 1.01 µM
  TGI: 4.47 µM
[13]; [36]
  CC50: 26.3 µM
[14]
  growth at 10 µM: 34.4%
[15]
  growth at 10 µM: 4.51%
[16]
  GI50: 0.57 µM
  LC50 (concentration killing 50% of cells): 2.35 µM
  TGI: 1.16 µM
[17]
  growth at 10 µM: -20.2%
[18]
  growth at 10 µM: 18%
[19]
  growth at 10 µM: 8.15%
[20]
  GI50: 4.89 µM
  TGI: > 32.5 µM
[20]; [36]
  CC50: > 32.5 µM
[21]
  GI50: 0.94 µM
  IC50: 0.94 µM
  TGI: 3.17 µM
[21]; [36]
  CC50: > 32.5 µM
[22]
  GI50: 1.51 µM
  LC50 (concentration killing 50% of cells): > 32.5 µM
  TGI: 9.68 µM
[23]
  GI50: 1.22 µM
  LC50: > 32.5 µM
  TGI: 29.1 µM
[24]
  growth at 10 µM: 22.5%
[25]
  growth at 10 µM: 34.4%
[26]
  GI50: 1.21 µM
  TGI: > 32.5 µM
[26]; [36]
  CC50: > 32.5 µM
[27]
  GI50: 1.04 µM
  TGI: > 32.5 µM
[27]; [36]
  CC50: > 32.5 µM
[28]
  growth at 10 µM: 24.6%
[29]
  growth at 10 µM: 5.43%
[30]
  GI50: 2.4 µM
  LC50 (concentration killing 50% of cells): > 32.5 µM
  TGI: > 32.5 µM
[31]
  GI50: 1.19 µM
  LC50 (concentration killing 50% of cells): > 32.5 µM
  TGI: 10.6 µM
[32]
  growth at 10 µM: 13.5%
[33]
  growth at 10 µM: 24.5%
[34]
  GI50: 1.03 µM
  LC50: > 32.5 µM
  TGI: > 32.5 µM
[35]
  growth at 10 µM: 45.9%
